One data set deals with T1, THR-β (Homo sapiens, UniProt P10828).
T1 construct: TRB LBD, GST purchased from Thermo Fisher; purchased Thermo Fisher PV4762
The data set can be described thus: Test of the binding ability of the compound to TRβ (TRβ LBD/RXR, biotin-SRC2-2 co-activating peptide, 665/615 nm fluorescence ratio). It counts as biochemical. Particulars: for Emax: activity relative to positive control; for α/β selectivity (multiple): calculated after being standardized with T3. As to the method:
1. Main experimental materials and instruments:
Biotin-SRC2-2 co-activating peptide purchased from Sangon Biotech (Shanghai) Co., Ltd.
TRB LBD, GST purchased from Thermo Fisher (product No. PV4762)
Europium-conjugated anti-glutathione antibody purchased from Cisbio (product No. 61GSTKLB)
Streptavidin-D2 purchased from Cisbio (product No. 610SADAB)
(§1) 4.2 The activity percentage was calculated as follows: […]
(§2) RatioCompound: Average of the relative ratios of the compound wells of the embodiments
(§3) RatioPositive: Average of the relative ratios of all positive control wells.
(§4) RatioBlank: Average of the relative ratios of all negative control wells.
(§5) EC50 was calculated by fitting the relationship between activity (%) and compound logarithmic concentration with Graphpad 5.0 by a nonlinear regression method.
(§6) Y=Bottom+ (top-bottom)/(1+10^((LogEC50−X)*slope))
(§7) X: Compound logarithmic concentration Y: Percentage activity

Another data set addresses T2, THR-α (Homo sapiens, UniProt P10827).
T2 construct: TR-a LBD, GST purchased from Thermo Fisher; purchased Thermo Fisher PV4762
The data set can be described thus: Test of the binding ability of the compound to TRα (TRα LBD/RXRα, biotin-SRC2-2 co-activating peptide, 665/615 nm fluorescence ratio). It counts as biochemical. Particulars: for Emax: activity relative to positive control. As to the method: as §1, §2, §3, §4, §5, §6, §7

Data set [1] can be described thus: Drug metabolism experiment on prodrug in SD rats: concentration in liver compared with blood. It counts as in vivo. The note with it: male, Sprague-Dawley, rat, po, 3 mg/kg, SD rats, oral 3 mg/kg VK-2809. As to the method: (§8) Test 3: Drug metabolism experiment on prodrug in SD rats
(§9) In the experiment, […] of 12 male SD rats having similar body weights were selected and orally administered compound 9, compound 10, and the control drug VK2809 (the prodrug of MB07444, structured as shown below) at a dose of 3 mg/kg at a single time, respectively, and blood and liver samples were collected at different time points.
(§10) Solutions of compound 9/compound 10 and VK2809 with a final concentration of 0.6 mg/mL were respectively prepared, and the ratio between the solvents used for the preparation was PEG400: pure water =50:50 (v/v).
(§11) No randomization was performed. The weights of the animals were measured before administration, and healthy animals with similar body weights were selected for inclusion in the experiment. The oral dose was 3 mg/kg.
(§12) At least 0.2 mL of blood was collected from the tail vein or jugular vein, and heparin sodium was used as the anticoagulant.
(§13) After being collected, a blood sample was placed in a marked ice-water bath centrifuge tube, plasma was quickly separated by centrifugation under centrifugation conditions: 3500 rpm, 10 minutes, and 4° C., and the plasma was stored under −40° C. for testing.
After the liver sample was collected, its surface was washed with normal saline, dried with medical gauze, placed in a labeled small ziplock bag, and stored under −40° C. for testing.
(§14) Q TRAP6500 mass spectrometer with ESI source was used to perform negative ion MRM scanning. An LC-MS/MS analysis method was used to detect the contents of compound 9, compound 10 and its active metabolite 1, VK2809 and its active metabolite MB07444 in the plasma and liver. The metabolic kinetics data analysis software WinNonlin 7.0 was used to calculate the concentration data of plasma, and the non-compartmental model (NCA) method was used to calculate the pharmacokinetic parameters.
The parameters of concentration in the livers of the SD rats and a comparison with the concentration in plasma are shown in Table 3 below: […]

Data set [2] in a line: Drug metabolism experiment on prodrug in SD rats: plasma pharmacokinetic parameters. The note with it: plasma. It counts as in vivo. As to the method:
as §8, §9, §10, §11, §12
15 min, 30 min, 1 h, 2 h, 4 h, 6 h, 8 h, 24 h after administration.
as §13, §14

[3] abbreviates: male, Sprague-Dawley (SD), rat, po, 3 mg/kg, oral 3 mg/kg VK2809.

This is an account of results in patent US12378268B2, “Heterocyclic THR-β receptor agonist compound and preparation method and use therefor” (Hepagene Therapeutics (HK) Limited, priority 2019, dated 2025).

SMILES strings stand for the structures. pEC50: −log10 of the molar value. Read-outs that look alike come from different tables or passages of the source.

T1 sequence (P10828 217-461 limits assumed, other chains not shown): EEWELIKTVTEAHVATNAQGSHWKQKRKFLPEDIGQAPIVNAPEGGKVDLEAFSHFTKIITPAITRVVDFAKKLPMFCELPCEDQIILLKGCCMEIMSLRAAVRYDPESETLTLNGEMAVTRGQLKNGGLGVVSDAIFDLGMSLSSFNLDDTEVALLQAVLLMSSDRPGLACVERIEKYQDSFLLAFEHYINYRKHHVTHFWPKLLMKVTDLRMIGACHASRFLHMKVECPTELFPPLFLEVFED
T1 sequence (P28702 whole entry partner, other chains not shown, the tested form may be a part): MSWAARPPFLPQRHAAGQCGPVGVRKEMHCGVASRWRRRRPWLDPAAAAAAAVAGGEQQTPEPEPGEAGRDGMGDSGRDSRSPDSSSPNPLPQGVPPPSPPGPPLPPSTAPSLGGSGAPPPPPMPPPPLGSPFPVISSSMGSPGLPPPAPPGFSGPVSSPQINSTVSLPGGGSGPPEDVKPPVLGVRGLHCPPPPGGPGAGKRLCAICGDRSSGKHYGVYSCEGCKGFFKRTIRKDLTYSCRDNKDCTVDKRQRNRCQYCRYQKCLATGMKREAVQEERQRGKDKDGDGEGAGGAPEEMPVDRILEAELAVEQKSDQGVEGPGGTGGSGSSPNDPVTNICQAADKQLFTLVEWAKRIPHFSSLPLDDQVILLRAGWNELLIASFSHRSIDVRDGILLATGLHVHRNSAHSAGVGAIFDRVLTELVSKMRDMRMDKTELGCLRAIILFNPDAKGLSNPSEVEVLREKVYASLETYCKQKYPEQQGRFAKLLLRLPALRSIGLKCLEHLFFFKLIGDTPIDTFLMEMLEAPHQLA
T2 sequence (P10827 163-410 isoform P10827-2 limits assumed, other chains not shown): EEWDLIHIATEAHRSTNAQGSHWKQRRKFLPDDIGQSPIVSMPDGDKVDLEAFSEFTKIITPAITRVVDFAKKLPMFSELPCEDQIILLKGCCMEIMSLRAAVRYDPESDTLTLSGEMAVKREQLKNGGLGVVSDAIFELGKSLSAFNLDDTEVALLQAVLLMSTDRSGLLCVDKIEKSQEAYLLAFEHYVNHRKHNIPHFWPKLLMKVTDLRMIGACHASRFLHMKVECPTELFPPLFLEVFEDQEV
T2 sequence (P19793 whole entry partner, other chains not shown, the tested form may be a part): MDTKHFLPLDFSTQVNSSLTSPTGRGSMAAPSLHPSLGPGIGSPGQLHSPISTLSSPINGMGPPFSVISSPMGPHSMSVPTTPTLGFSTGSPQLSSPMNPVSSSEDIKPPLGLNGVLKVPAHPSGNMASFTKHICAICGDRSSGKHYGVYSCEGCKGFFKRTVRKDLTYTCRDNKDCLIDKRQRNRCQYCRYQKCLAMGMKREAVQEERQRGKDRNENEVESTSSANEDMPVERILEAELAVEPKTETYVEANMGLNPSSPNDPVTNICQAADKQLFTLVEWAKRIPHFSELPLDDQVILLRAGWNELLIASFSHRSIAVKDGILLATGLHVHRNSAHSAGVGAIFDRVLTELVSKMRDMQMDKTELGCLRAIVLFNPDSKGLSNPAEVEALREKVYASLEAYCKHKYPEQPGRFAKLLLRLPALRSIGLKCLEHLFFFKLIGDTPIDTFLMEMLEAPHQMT

As usually defined, the pEC50 is the EC50 on a negative log10 scale, so that one unit is a factor of ten. A word on the Emax: it is the maximal effect, on the per cent scale that the assay sets. Take `Cc1cc(OCP(=O)(O)O)cc(C)c1Cc1ccc(O)c2ccccc12` [A, ((4-((4-hydroxynaphthyl-1-yl)methyl)-3,5-dimethylphenoxy)methyl) phosphoric acid, reference compound]: at THR-β, the pEC50 was 6.96, the Emax stood at 100% and the “α/β selectivity (multiple)” value is on record as 4.7 multiple. Moreover, on THR-α, the pEC50 is 6.55 and the Emax stood at 106%.
Turning to `Cc1cc(OCP(=O)(O)O)cc(C)c1Cc1ccc(O)c2c1CCCC2` [B, reference compound], at THR-β, the negative logarithm of the EC50 (pEC50) was 7.39, the maximum response (Emax) came out at 111% and the “α/β selectivity (multiple)” value is 11.4 multiple. Besides, at THR-α, the pEC50 was 6.64 and the Emax was 106%.
With `Cc1cc(OCP(=O)(O)O)cc(C)c1Cc1ccc(O)c2c1CCC2C` (centres unmarked) [Compound 2], at THR-β, the pEC50 was above 7.00 and the Emax turned out to be 104%. On THR-α, the negative-log EC50 (pEC50) was above 6.70 and the maximum response (Emax) came to 98.3%.
As for `Cc1cc(OCP(=O)(O)O)cc(C)c1Cc1ccc(O)c2c1CCCC2(C)C` [Compound 3], at THR-β, the pEC50 was 6.98, the Emax amounted to 100% and the “α/β selectivity (multiple)” value is 4.8 multiple. On THR-α, the pEC50 was 6.57 and the maximal effect (Emax) came out at 105%.
Consider `Cc1cc(OCP(=O)(O)O)cc(C)c1Cc1ccc(O)c2c1CCCCC2(C)C` [Compound 4, ((4-((4-hydroxy-5,5-dimethyl-6,7,8,9-tetrahydro-5H-benzo[7]annun-1-yl)methyl)-3,5-dimethylphenoxy)methyl) phosphoric acid], for which the pEC50 is below 6.00 at THR-β and below 5.00 at THR-α.
Turning to `Cc1cc(OCP(=O)(O)O)cc(C)c1Oc1ccc(O)c2c1CCC2(C)C` [Compound 5, ((4-((7-hydroxy-1,1-dimethyl-2,3-dihydro-1H-indene-4-position)oxy)-3,5-dimethylphenoxy)methyl) phosphoric acid], the pEC50 was above 7.00 on THR-β and above 6.70 at THR-α. The Emax on THR-β amounted to 110%; at THR-α it was 102%.
As to `CC1(C)CCc2c(Cc3c(Cl)cc(OCP(=O)(O)O)cc3Cl)ccc(O)c21` [Compound 6, ((3,5-dichloro-4-((7-hydroxy-1,1-dimethyl-2,3-dihydro-1H-indene-4-position)methyl)phenoxy)methyl) phosphoric acid], at THR-β, the pEC50 is 6.97, the Emax is 79% and the “α/β selectivity (multiple)” value is reported as 0.7 multiple. For the same molecule, at THR-α, the pEC50 was 7.30 and the Emax was determined as 99.2%.
Usually AUC(0-inf) stands for the area under the concentration-time curve extrapolated to infinity. The AUC(0-t) is exposure summed from dosing to a finite time, without extrapolation to infinity. What is called Tmax is the time from dosing to the highest level. A word on the half-life: it is the time in which the quantity being followed falls by half. The Cmax is the peak of the concentration-time curve. Regarding `Cc1cc(OCP(=O)(O)O)cc(C)c1Cc1ccc(O)c(C(C)C)c1` [MB07444, reference compound], at THR-β, the pEC50 was 7.48, the Emax is 113% and the “α/β selectivity (multiple)” value was 2.9 multiple. The concentration at 1 h in data set [1] (liver, 1 h, read-out: Ct Liver) worked out at 214 ng/g. In addition, the concentration at 4 h in data set [1] (liver, 4 h, read-out: Ct Liver) was determined as 952 ng/g. Also, the concentration at 8 h in data set [1] (liver, 8 h, read-out: Ct Liver) turned out to be 542 ng/g. In addition, in data set [1] (liver, 24 h, read-out: Ct Liver), the concentration at 24 h worked out at 37 ng/g. Moreover, the Kp at 1 h in data set [1] (liver/plasma, 1 h, read-out: Liver-to-blood ratio) was determined as 15.9. Further, the Kp at 4 h in data set [1] (liver/plasma, 4 h, read-out: Liver-to-blood ratio) is 14. In addition, the Kp at 8 h in data set [1] (liver/plasma, 8 h, read-out: Liver-to-blood ratio) amounted to 13.6. For the same molecule, in data set [1] (liver/plasma, 24 h, read-out: Liver-to-blood ratio), the Kp at 24 h amounted to 9.9. Further, the concentration at 1 h in data set [1] (plasma, 1 h, read-out: Ct Blood) worked out at 5.9 ng/g. Besides, in data set [1] (plasma, 4 h, read-out: Ct Blood), the concentration at 4 h is 16.9 ng/g. For the same molecule, the concentration at 8 h in data set [1] (plasma, 8 h, read-out: Ct Blood) was 29.6 ng/g. Moreover, the concentration at 24 h in data set [1] (plasma, 24 h, read-out: Ct Blood) came out at 3.6 ng/g. Moreover, at THR-α, the pEC50 was 7.29 and the Emax was 113%. Further, in data set [2] (setting [3]), the AUC(0-inf) amounted to 0.448 µg·h/mL, the AUC(0-t) amounted to 0.42 µg·h/mL, the Tmax is 7.33 h and the half-life was 5.29 h. Besides, the Cmax in data set [2] (male, Sprague-Dawley (SD), rat, po, 3 mg/kg, oral 3 mg/kg VK2809, read-out: Cmax) amounted to 0.0388 µg/mL. For the same molecule, in data set [2] (oral 3 mg/kg VK2809), the Kel stood at 0.131 h⁻¹.
